Assay results: ChEMBL document CHEMBL3044739, “Synthesis and cytotoxicity of novel N-sulfonyl-1,2,3,4-tetrahydroisoquinoline thiosemicarbazone derivatives” (Med Chem Res, 2013)
In brackets after ≈: the same amount, converted by molar mass.

How the values were obtained:
Format in all cases: functional, cell-based
HepG2 = assay: Cytotoxicity against Homo sapiens (human) HepG2 cells assessed as survival after 3 days by crystal violet staining; conditions: HepG2, 72 h
MOLT-3 = assay: Cytotoxicity against Homo sapiens (human) MOLT3 cells assessed as survival after 3 days by crystal violet staining; conditions: MOLT-3, 72 h
A549 = assay: Cytotoxicity against Homo sapiens (human) A549 cells assessed as survival after 3 days by crystal violet staining; conditions: A549, 72 h
[1] = Cytotoxicity against Homo sapiens (human) HuCCa1 cells assessed as survival after 3 days by crystal violet staining; conditions: HuCC-A1, 72 h

Structure (SMILES)	IC50 (HepG2) [µg/mL]	IC50 (MOLT-3) [µg/mL]	IC50 (A549) [µg/mL]	IC50 [1] [µg/mL]
NC(=S)N/N=C(/c1ccccc1)c1nccc2ccccc12	16 (≈ 52.2 µM)	0.72 (≈ 2.35 µM)	30 (≈ 97.9 µM)	35 (≈ 114 µM)
C/C(=N\NC(N)=S)C1c2ccccc2CCN1S(=O)(=O)c1cccc([N+](=O)[O-])c1 (centres undefined)	38.5 (≈ 88.8 µM)	18.1 (≈ 41.7 µM)	> 50	> 50
COc1ccc(S(=O)(=O)N2CCc3ccccc3C2/C(C)=N/NC(N)=S)cc1 (centres undefined)	33.5 (≈ 80 µM)	15.6 (≈ 37.2 µM)	> 50	> 50
C/C(=N\NC(N)=S)C1c2ccccc2CCN1S(=O)(=O)c1ccc([N+](=O)[O-])cc1 (centres undefined)	32.3 (≈ 74.6 µM)	18.2 (≈ 42.1 µM)	> 50	> 50
COc1ccc(S(=O)(=O)N2CCc3cc(OC)c(OC)cc3C2/C(C)=N/NC(N)=S)cc1 (centres undefined)	10.5 (≈ 21.9 µM)	2.13 (≈ 4.45 µM)	> 50	31 (≈ 64.8 µM)
C/C(=N\NC(N)=S)C1c2ccccc2CCN1S(=O)(=O)c1ccc(C)cc1 (centres undefined)	46 (≈ 114 µM)	19 (≈ 47.2 µM)	> 50	> 50
COc1cc2c(cc1OC)C(/C(C)=N/NC(N)=S)N(S(=O)(=O)c1ccc([N+](=O)[O-])cc1)CC2 (centres undefined)	> 50	42.3 (≈ 85.7 µM)	> 50	> 50
COc1cc2c(cc1OC)C(/C(C)=N/NC(N)=S)N(S(=O)(=O)c1ccc(C)cc1)CC2 (centres undefined)	> 50	> 50	> 50	> 50
COc1ccc(S(=O)(=O)N2CCc3ccccc3C2/C(=N/NC(N)=S)c2ccccc2)cc1 (centres undefined)	> 50	8.44 (≈ 17.6 µM)	> 50	> 50
Cc1ccc(S(=O)(=O)N2CCc3ccccc3C2/C(=N/NC(N)=S)c2ccccc2)cc1 (centres undefined)	> 50	7.85 (≈ 16.9 µM)	> 50	> 50
NC(=S)N/N=C(\c1ccccc1)C1c2ccccc2CCN1S(=O)(=O)c1ccc([N+](=O)[O-])cc1 (centres undefined)	> 50	11.3 (≈ 22.7 µM)	> 50	> 50
COc1cc2c(cc1OC)C(/C(=N/NC(N)=S)c1ccccc1)N(S(=O)(=O)c1ccc(Cl)cc1)CC2 (centres undefined)	> 50	5.03 (≈ 9.23 µM)	> 50	> 50
COc1ccc(S(=O)(=O)N2CCc3cc(OC)c(OC)cc3C2/C(=N/NC(N)=S)c2ccccc2)cc1 (centres undefined)	> 50	10.4 (≈ 19.3 µM)	> 50	> 50
COc1cc2c(cc1OC)C(C(=O)c1ccccc1)N(S(=O)(=O)c1ccc(C)cc1)CC2 (centres undefined)	> 50	> 50	> 50	> 50
COc1cc2c(cc1OC)C(/C(=N/NC(N)=S)c1ccccc1)N(S(=O)(=O)c1ccc([N+](=O)[O-])cc1)CC2 (centres undefined)	> 50	> 50	> 50	> 50
COc1cc2c(cc1OC)C(/C(=N/NC(N)=S)c1ccccc1)N(S(=O)(=O)c1ccc(C)cc1)CC2 (centres undefined)	21.5 (≈ 41 µM)	8.45 (≈ 16.1 µM)	> 50	> 50
COc1cccc2c1C(=O)c1c(O)c3c(c(O)c1C2=O)C[C@@](O)(C(=O)CO)C[C@@H]3O[C@H]1C[C@H](N)[C@H](O)[C@H](C)O1 [DOXORUBICIN]	0.23 (≈ 0.423 µM)		0.38 (≈ 0.699 µM)	0.35 (≈ 0.644 µM)
COc1cc([C@@H]2c3cc4c(cc3[C@@H](O[C@@H]3O[C@@H]5CO[C@@H](C)O[C@H]5[C@H](O)[C@H]3O)[C@H]3COC(=O)[C@H]23)OCO4)cc(OC)c1O [ETOPOSIDE]	16 (≈ 27.2 µM)	0.024 (≈ 0.0408 µM)		
